In US5324750A, “Compositions and methods for drug delivery and chromatography” (priority 1988, dated 1994):
Counter-ions that a name gives are not always drawn.

What was measured:
[1] = Stability of cyclodextrin derivatives in solution / on storage (hydrolysis); type: physicochemical
[2] = Solubility of amino cyclodextrins compared with unsubstituted cyclodextrin; type: physicochemical; conditions: water or other aqueous-based media
From the text: Solubility--refers to solution in water or other aqueous-based media.

Row | SMILES | stability in solution [1] | solubility [2] | hydrolysis ([1]; general / in water / during purification)
1 | [N-]=[N+]=NC[C@H]1O[C@@H]2O[C@H]3[C@H](O)[C@@H](O)[C@@H](O[C@H]4[C@H](O)[C@@H](O)[C@@H](O[C@H]5[C@H](O)[C@@H](O)[C@@H](O[C@H]6[C@H](O)[C@@H](O)[C@@H](O[C@H]7[C@H](O)[C@@H](O)[C@@H](O[C@H]1[C@H](O)[C@H]2O)O[C@@H]7CO)O[C@@H]6CO)O[C@@H]5CO)O[C@@H]4CO)O[C@@H]3CO [6-Axido-6-Deoxy-α-Cyclodextrin, 6^A -Azido-6^A -deoxy-α-cyclodextrin] | not very stable in solution |  | 
2 | NC[C@H]1O[C@@H]2O[C@H]3[C@H](O)[C@@H](O)[C@@H](O[C@H]4[C@H](O)[C@@H](O)[C@@H](O[C@H]5[C@H](O)[C@@H](O)[C@@H](O[C@H]6[C@H](O)[C@@H](O)[C@@H](O[C@H]7[C@H](O)[C@@H](O)[C@@H](O[C@H]8[C@H](O)[C@@H](O)[C@@H](O[C@H]1[C@H](O)[C@H]2O)O[C@@H]8CO)O[C@@H]7CO)O[C@@H]6CO)O[C@@H]5CO)O[C@@H]4CO)O[C@@H]3CO [6^A -amino-6^A -deoxy-β-cyclodextrin hydrochloride salt] |  | greater than 20 g/100 ml | 
3 | NC[C@H]1O[C@@H]2O[C@H]3[C@H](O)[C@@H](O)[C@@H](O[C@H]4[C@H](O)[C@@H](O)[C@@H](O[C@H]5[C@H](O)[C@@H](O)[C@@H](O[C@H]6[C@H](O)[C@@H](O)[C@@H](O[C@H]7[C@H](O)[C@@H](O)[C@@H](O[C@H]8[C@H](O)[C@@H](O)[C@@H](O[C@H]1[C@H](O)[C@H]2O)O[C@@H]8CO)O[C@@H]7CO)O[C@@H]6CO)O[C@@H]5CO)O[C@@H]4CO)O[C@@H]3CO [6^A -amino-6^A -deoxy-β-cyclodextrin, 6^A -Amino-6^A -deoxy-β-cyclodextrin] | not stable in solution | about 4.8 g/100 ml | 
4 | CC(=O)O[C@H]1[C@H]2O[C@H]3[C@H](O)[C@@H](O)[C@@H](O[C@H]4[C@H](O)[C@@H](O)[C@@H](O[C@H]5[C@H](O)[C@@H](O)[C@@H](O[C@H]6[C@H](O)[C@@H](O)[C@@H](O[C@H]7[C@H](O)[C@@H](O)[C@@H](O[C@@H]([C@@H]1O)[C@@H](CO)O2)O[C@@H]7CO)O[C@@H]6CO)O[C@@H]5CO)O[C@@H]4CO)O[C@@H]3CO [α-2CDOAc, 2^A -O-Acetyl-α-cyclodextrin] |  |  | total purification could not be achieved due to hydrolysis of the product
